Assay results: PMC10804683, “Identification of the pyridoxal 5′‐phosphate allosteric site in human pyridox(am)ine 5′‐phosphate oxidase” (Protein Science : A Publication of the Protein Society, 2024)
Residue numbers refer to the chain shown, from its start.

Tests used:
human PNPO R161C variant = molecular target: human PNPO R161C variant; set-up: method as in Barile et al., [2021]; details: previous experiments, ref Barile et al., [2021]; cited from earlier work
human PNPO wild type = molecular target: T1, human PNPO wild type (Homo sapiens, UniProt Q9NVS9); experiment: PLP inhibition kinetics of PNP oxidation, wild type; type: biochemical; set-up: a main form corresponding to the entire protein; made in house; host or cells: E. coli BL21(DE3); details: Na-HEPES pH 7.6, 2 μM enzyme, PLP 0–16 μM
T1 sequence (Q9NVS9 1-261): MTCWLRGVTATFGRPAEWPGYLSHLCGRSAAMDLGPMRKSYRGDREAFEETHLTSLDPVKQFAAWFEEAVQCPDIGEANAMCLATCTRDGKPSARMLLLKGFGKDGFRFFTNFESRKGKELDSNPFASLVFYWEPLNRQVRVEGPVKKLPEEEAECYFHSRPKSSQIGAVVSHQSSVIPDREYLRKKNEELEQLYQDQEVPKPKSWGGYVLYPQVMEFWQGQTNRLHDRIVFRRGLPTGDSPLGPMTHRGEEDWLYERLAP
Procedure: (§1) This is a general inhibition mechanism that takes into account the possibility of PLP binding to both the active and allosteric sites. PLP binding at the active site gives a complete, competitive inhibition, whereas PLP binding at the allosteric site yields a substrate‐enzyme‐PLP ternary complex that is still catalytically active, although k CAT is reduced by a coefficient whose value is around 0.15. A thorough inhibition kinetic characterization was carried out with the wild type, F48A, F48A/E50L/R258L, and F48A/E50L/H248N/R258L PNPO forms, so as to evaluate the effect of the variations on the allosteric properties of the enzyme. The initial velocity of PNP conversion into PLP was measured in Na‐HEPES buffer (in which PLP is allowed to accumulate) by varying substrate concentration at different, fixed exogenous PLP concentrations, using 2 μM enzyme. A series of saturation curves were obtained that were used to fit the Michaelis–Menten equation (Figure 5), acquiring apparent V MAX and K M values as a function of PLP concentration. […]
(§2) FIGURE 5 Characterization of PLP inhibition. Upper panels: The initial velocity of the reaction was measured with 2 μM wild type (a), and the F48A (b), F48A/E50L/R258L (c), and F48A/E50L/H248N/R258L (d) PNPO variants, varying PNP concentration while keeping exogenous PLP fixed at different concentrations (0, 0.25, 0.5, 1, 2, 4, 8, and 16 μM). […]

human PNPO F48A variant = molecular target: T2, human PNPO F48A variant (Homo sapiens, UniProt Q9NVS9, F48A); experiment: PLP inhibition kinetics of PNP oxidation, F48A; type: biochemical; set-up: a main form corresponding to the entire protein; made in house; host or cells: E. coli BL21(DE3); details: F48A (behavior much less marked than wild type); Na-HEPES pH 7.6, 2 μM enzyme, PLP 0–16 μM
T2 sequence (Q9NVS9 1-261 F48A): T1 sequence (Q9NVS9 1-261) with F48A
Procedure: as §1, §2

SMILES: Cc1ncc(COP(=O)(O)O)c(C=O)c1O [PLP, pyridoxal 5′‐phosphate]
- PLP binding KD^DSF (human PNPO R161C variant): No binding
- type of inhibition of PNP oxidation by PLP (human PNPO wild type): typical hyperbolic increase of 1/V MAX and the parabolic increase of K M/V MAX
- type of inhibition of PNP oxidation by PLP (human PNPO F48A variant): typical hyperbolic increase of 1/V MAX and the parabolic increase of K M/V MAX
